“And” between values parts separate entries of the source, which are not always exact repeats. Identical values can stand only once. “Also recorded” adds a separate entry of the source. Like-named read-outs stand apart in the source and are kept apart here.
How the values were obtained:
HeLa S-3 cells = test: Inhibition of cell growth of HeLa cells (SRB); type: cell-based, human; conditions: 2 days of treatment, replicate experiments
Experimental: Growth inhibition (GI50) values were measured with HeLa S-3 cells selected for growth on plastic. […] One day later, a control plate was fixed by addition of TCA to 5%. After five rinses with tap water the plate was air dried and stored at 4° C. Test compounds were added to the remaining plates at 10-fold dilutions between 0.01 and 100 μM. Two days later all plates were fixed as described above. Cells were then stained by the addition of 100 μl per well of 0.4% sulforhodamine B (SRB) in 1% acetic acid for 30 min at 4° C. Wells were then quickly rinsed 5×with acetic acid (1%) and allowed to air dry. The SRB was then solubilized by the addition of 100 μl per well of unbuffered 10 mM Tris base. Dye was quantified by measuring absorbance at 490 nm on a Molecular Devices kinetic microplate reader. Growth at each inhibitor concentration relative to the untreated control was calculated according to the following equation: percent growth=100×(T−To)/(C−To), where T was the average optical density (OD) of the test wells after 2 days of treatment, To was the average OD of the wells in the control plate on day 0 and C was the average OD of untreated wells. Plots of percent growth versus inhibitor concentration were used to determine the GI50.

CyclinA/cdk2 = CyclinA/cdk2 (Homo sapiens, UniProt P24941); test: CyclinA/cdk2 protein kinase assay (histone H1 phosphorylation); conditions: IC50 CyclinA/cdk2, complex immunopurified from HeLa cells; 15 μM ATP; replicate experiments
CyclinE/cdk2 = CyclinE/cdk2 (Homo sapiens, UniProt P24941); test: CyclinE/cdk2 protein kinase assay (histone H1 phosphorylation); conditions: 15 μM ATP, replicate experiments
CyclinB/cdk1 = target: T1, CyclinB/cdk1 (Homo sapiens, UniProt P06493); test: CyclinB/cdk1 protein kinase assay (histone H1 phosphorylation); type: biochemical; conditions: complex immunopurified from HeLa cells; 15 μM ATP; replicate experiments
T1 construct: Monoclonal antibody against cyclinB (GNS1) is added to the supernatant; endogenous in cells
Experimental: HeLa cells are blocked at the G1/S border by culturing in the presence of 2 mM thymidine for 20 h. The cells are then rinsed 3×in phosphate buffered saline and resuspended in regular medium. After 4 h of culture, the mitotic blocker, nocodazole is added to a final concentration of 75 ng/ml. […] The lysate is then clarified by centrifugation at 10,000×g for 10 min. The supernatant is collected and diluted 1:5 with Lysis Buffer. Monoclonal antibody against cyclinB (GNS1) is added to the supernatant to a final concentration of 5 μg/ml and shaken at 4° C. for 2 h. The immune complexes are then collected by the addition of 200 μl of protein agarose beads for 1 h. The beads are washed 4×in lysis buffer and 1×in kinase assay buffer.
Duplicate assays were performed at each concentration.

[1] = tested on: Tumor Cells in Hollow Fibers; test: NCI Hollow Fiber Assay (in vivo evaluation); conditions: for IP Score: IP fibers; for SC score: SC fibers
[2] = IC50 CyclinE/cdk2, complex immunopurified from HeLa cells

T1 sequence (P06493 whole entry): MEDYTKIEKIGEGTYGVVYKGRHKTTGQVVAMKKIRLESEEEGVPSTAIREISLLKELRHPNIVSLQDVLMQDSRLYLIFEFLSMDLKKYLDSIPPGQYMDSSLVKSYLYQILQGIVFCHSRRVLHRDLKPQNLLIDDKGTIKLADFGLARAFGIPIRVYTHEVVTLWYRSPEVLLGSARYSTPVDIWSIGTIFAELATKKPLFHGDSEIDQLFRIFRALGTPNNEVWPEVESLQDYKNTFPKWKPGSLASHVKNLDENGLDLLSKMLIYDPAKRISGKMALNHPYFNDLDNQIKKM
T1 sequence (P14635 whole entry partner): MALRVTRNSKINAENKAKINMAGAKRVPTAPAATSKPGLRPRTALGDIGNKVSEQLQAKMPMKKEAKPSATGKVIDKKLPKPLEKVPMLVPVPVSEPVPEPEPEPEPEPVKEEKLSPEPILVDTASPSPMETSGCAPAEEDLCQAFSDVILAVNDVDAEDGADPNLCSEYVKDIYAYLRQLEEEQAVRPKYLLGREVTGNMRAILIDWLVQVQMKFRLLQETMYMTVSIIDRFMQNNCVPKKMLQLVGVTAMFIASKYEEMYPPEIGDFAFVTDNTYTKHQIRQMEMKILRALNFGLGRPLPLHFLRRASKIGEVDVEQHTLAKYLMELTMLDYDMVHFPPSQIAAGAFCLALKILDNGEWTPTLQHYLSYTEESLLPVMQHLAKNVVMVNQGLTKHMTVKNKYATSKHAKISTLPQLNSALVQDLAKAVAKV

| melting point | IC50 (CyclinA/cdk2) | IC50 (CyclinE/cdk2; [2]) | IC50 (CyclinB/cdk1) | GI50 (HeLa S-3 cells; Homo sapiens, HeLa S3, 48 h) [µM] | Structure (SMILES) | further results |
| --- | --- | --- | --- | --- | --- | --- |
| – | 7 µM and 8 µM | 1 µM | 2 µM | 0.2 | CC(=O)N[C@H]1CC[C@H](Nc2nc(NCc3ccc(-c4cccnc4)cc3)c3ncn(C(C)C)c3n2)CC1 [Compound 104] | – |
| – | 3 µM | 3 µM | 6 µM | – | CC(C)n1cnc2c(NCc3ccc(-c4ccccc4)cc3)nc(N[C@H]3CC[C@H](N)CC3)nc21 [Compound 75] | – |
| 183 to 185 °C | – | – | – | – | CC(=O)N[C@H]1CC[C@H](Nc2nc(NCc3cccc(-c4ccccc4)c3)c3ncn(C(C)C)c3n2)CC1 [Compound 135] | – |
| – | – | 12 µM and > 10 µM | > 10 µM | 7 | CC(=O)N[C@H]1CCCC[C@@H]1Nc1nc(NCc2ccc(-c3ccccc3)cc2)c2ncn(C(C)C)c2n1 [Compound 60] | – |
| 111 to 114 °C | – | – | – | – | C=CCn1cnc2c(NCc3ccc(-c4ccccc4)cc3)nc(N[C@H]3CC[C@H](N)CC3)nc21 [Compound 146] | – |
| 150 to 155 °C | – | – | – | – | CCCN[C@H]1CC[C@H](Nc2nc(NCc3ccc(-c4ccc(C)s4)cc3)c3ncn(C(C)C)c3n2)CC1 [Compound 159] | – |
| 86 to 90 °C | – | – | – | – | Cc1cc(C)cc(-c2ccc(CNc3nc(N[C@H]4CC[C@H](N)CC4)nc4c3ncn4C(C)C)cc2)c1 [Compound 149] | – |
| 144 to 146 °C | – | – | – | – | N[C@H]1CC[C@H](Nc2nc(NCc3ccc(-c4ccccc4)cc3)c3ncn(C4CCCC4)c3n2)CC1 [Compound 144] | – |
| 246 to 249 °C (dec.) | 3 µM | 0.7 µM | – | > 10 | CC(C)n1cnc2c(NCc3ccc(-c4ccc(C(=O)O)cc4)cc3)nc(N[C@H]3CC[C@H](N)CC3)nc21 [Compound 114] | – |
| – | – | – | 7 µM | 5 | CC[C@H](CO)Nc1nc(NCc2ccc(-c3cccc(NC(C)=O)c3)cc2)c2ncn(C(C)C)c2n1 [Compound 5] | – |
| – | 8 µM | 4 µM | 6 µM | – | CC(=O)N[C@H]1CC[C@H](Nc2nc(NCc3ccc(-c4cccc(F)c4)cc3)c3ncn(C(C)C)c3n2)CC1 [Compound 96] | – |
| 205 to 208 °C | 6 µM | 1 µM | – | – | CC(C)n1cnc2c(NCc3ccc(-c4cccc(C(=O)O)c4)cc3)nc(N[C@H]3CC[C@H](N)CC3)nc21 [Compound 118] | – |
| – | 11 µM and 4 µM | 2 µM and 4 µM | 12 µM | – | CC(C)n1cnc2c(NCc3ccc(-c4ccccc4)cc3)nc(N[C@@H]3CCCC[C@H]3N)nc21 (racemic) [Compound 58] | – |

Further lines, the compound ahead of its results:

| Structure (SMILES) | melting point | IC50 (CyclinA/cdk2) | IC50 (CyclinE/cdk2; [2]) | IC50 (CyclinB/cdk1) | GI50 (HeLa S-3 cells; Homo sapiens, HeLa S3, 48 h) [µM] | further results |
| --- | --- | --- | --- | --- | --- | --- |
| CC(C)n1cnc2c(NCc3ccc(-c4ccsc4)nc3)nc(N[C@H]3CC[C@H](N)CC3)nc21 [Compound 123] | 78 to 81 °C | 0.2 µM | 0.04 µM | – | – | GI50 (HeLa S-3 cells): < 0.001 µM and 0.0001 µM |
| CC(C)n1cnc2c(NCc3ccc(-c4ccc(F)cc4)cc3)nc(N[C@H]3CC[C@H](N)CC3)nc21 [Compound 101] | – | – | – | 4 µM | – | – |
| CC(C)n1cnc2c(NCc3cccnc3)nc(N[C@@H]3CCCC[C@@H]3N)nc21 [Compound 126, reference compound] | – | 0.6 µM and 0.8 µM | 0.06 µM | 2 µM and 0.2 µM | – | IC50 (CyclinE/cdk2; read-out: IC50 CyclinE/cdk2, complex immunopurified from HeLa cells): 0.06 µM |
| CC(=O)NCCCNc1nc(NCc2ccc(-c3ccccc3)cc2)c2ncn(C(C)C)c2n1 [Compound 212] | 106 to 107 °C | – | – | – | 5 | – |
| COc1ccc(OC)c(-c2ccc(CNc3nc(N[C@H]4CC[C@H](NC(C)=O)CC4)nc4c3ncn4C(C)C)cc2)c1 [Compound 154] | 185 to 192 °C | – | – | – | 0.6 | GI50 (HeLa S-3 cells): 0.9 µM |
| CC(=O)N[C@H]1CC[C@H](Nc2nc(NCc3ccc(-c4ccccn4)nc3)c3ncn(C(C)C)c3n2)CC1 [Compound 94] | – | 0.6 µM and 0.2 µM | 0.3 µM | 0.4 µM | 0.1 | Cell Types Killed [1]: COLO205,; also recorded: OVCAR-3, H522; IP Score [1]: 22; SC score [1]: 2 |
| CC(C)n1cnc2c(NCc3ccc(-c4ccccn4)nc3)nc(N[C@H]3CC[C@H](N)CC3)nc21 [Compound 93] | – | 0.2 µM and 0.3 µM | 0.09 µM and 0.1 µM | 0.9 µM | – | Cell Types Killed [1]: OVCAR-3; IP Score [1]: 22; SC score [1]: 8; GI50 (HeLa S-3 cells): 0.3 µM |
| CCCn1cnc2c(NCc3ccc(-c4ccccc4)cc3)nc(N[C@H]3CC[C@H](N)CC3)nc21 [Compound 142] | 133 to 138 °C | – | – | – | – | – |
| CC(C)n1cnc2c(NCc3ccc(-c4cccc(F)c4)cc3)nc(N[C@H]3CC[C@H](N)CC3)nc21 [Compound 95] | – | – | – | 4 µM | – | – |
| COC(=O)c1ccc(-c2ccc(CNc3nc(N[C@H]4CC[C@H](NC(C)=O)CC4)nc4c3ncn4C(C)C)cc2)cc1 [Compound 117] | 247 to 250 °C | > 10 µM | 3 µM | – | – | – |
| CC(C)n1cnc2c(NCc3ccc(-c4ccccc4)cc3)nc(NC3(CO)CCCC3)nc21 [Compound 53] | – | > 10 µM | 15 µM and 4 µM | > 10 µM | – | – |
| CC(=O)N[C@H]1CC[C@H](Nc2nc(NCc3ccc(-c4ccc(F)c(Cl)c4)cc3)c3ncn(C(C)C)c3n2)CC1 [Compound 100] | – | > 10 µM | 4 µM | > 10 µM | 0.6 | – |
| CC(=O)N[C@H]1CC[C@H](Nc2nc(NCc3ccc(-c4cccs4)nc3)c3ncn(C(C)C)c3n2)CC1 [Compound 200] | 206 to 208 °C | – | – | – | 0.3 | GI50 (HeLa S-3 cells): 0.2 µM |
| CC(C)n1cnc2c(NCc3ccc(-c4ccc(F)c(Cl)c4)cc3)nc(N[C@H]3CC[C@H](N)CC3)nc21 [Compound 14] | – | – | – | 7 µM | – | GI50 (HeLa S-3 cells): 0.03 µM |
| CC(C)n1cnc2c(NCc3ccc(-c4cccnc4)cc3)nc(N[C@H]3CC[C@H](N)CC3)nc21 [Compound 103] | – | 0.6 µM and 0.7 µM | 0.2 µM | 1 µM | – | Cell Types Killed [1]: OVCAR 3,; also recorded: OVCAR 5, H522,; also recorded: MDA-MB-435,; also recorded: SF295; IP Score [1]: 38; SC score [1]: 6 |
| CC(=O)N[C@H]1CC[C@H](Nc2nc(NCc3ccc(-c4cccc(CN)c4)cc3)c3ncn(C(C)C)c3n2)CC1 [Compound 223] | 200 to 206 °C | – | – | – | – | – |
| Cc1ccc(-c2ccc(CNc3nc(N[C@H]4CC[C@H](N)CC4)nc4c3ncn4C(C)C)cc2)cc1 [Compound 13] | – | 4 µM and 1 µM and 0.8 µM | 2 µM and 0.3 µM and 0.9 µM | 4 µM | – | – |
| CC(=O)N[C@H]1CC[C@H](Nc2nc(NCc3ccc(-c4ccc(Cl)cc4)cc3)c3ncn(C(C)C)c3n2)CC1 [Compound 99] | – | > 10 µM | 9 µM | > 10 µM | 5 | – |
| CC(=O)N[C@H]1CC[C@H](Nc2nc(NCc3ccc(-c4cc(C)cc(C)c4)cc3)c3ncn(C(C)C)c3n2)CC1 [Compound 150] | 207 to 210 °C | – | – | – | 0.3 | – |
| CC(C)n1cnc2c(NCc3ccc(-c4ccccc4)cc3)nc(N[C@@H]3CCCC[C@@H]3N)nc21 (racemic) [Compound 74] | – | 5 µM and 2 µM and 1 µM | 2 µM and 3 µM | 6 µM | – | – |
| COc1cccc(-c2ccc(CNc3nc(N[C@H]4CC[C@H](NC(C)=O)CC4)nc4c3ncn4C(C)C)cn2)c1 [Compound 194] | 161 to 163 °C | – | – | – | 0.06 | GI50 (HeLa S-3 cells): 0.04 µM |
| CCn1cnc2c(NCc3ccc(-c4ccccc4)cc3)nc(N[C@H]3CC[C@H](N)CC3)nc21 [Compound 137] | 175 to 182 °C | – | – | – | – | – |
| CC(C)n1cnc2c(NCc3ccc(-c4ccc(Cl)cc4)cc3)nc(N[C@H]3CC[C@H](N)CC3)nc21 [Compound 98] | – | – | – | > 10 µM | – | – |
| CC(C)n1cnc2c(NCc3ccc(-c4ccccc4)nc3)nc(N[C@H]3CC[C@H](N)CC3)nc21 [Compound 86] | – | 0.9 µM and 0.7 µM and 0.4 µM and 0.6 µM | – | 2 µM | – | Cell Types Killed [1]: OVCAR 3,; also recorded: OVCAR 5, H522; IP Score [1]: 38; SC score [1]: 0 |
| CCn1cnc2c(Nc3cccc(Cl)c3)nc(N[C@H]3CCCC[C@H]3N)nc21 [Compound 125, reference compound] | – | 1 µM | 0.1 µM | 0.6 µM | 3 | – |
| CC(C)n1cnc2c(NCc3ccc(-c4ccccc4)cc3)nc(N[C@H]3CCCC[C@H]3NC(=O)Nc3ccccc3)nc21 [Compound 80] | – | > 10 µM | > 10 µM and 4 µM and 2 µM | > 10 µM | – | – |

Reference: patent US20030087906A1, “NITROGEN SUBSTITUTED BIARYL PURINE DERIVATIVES AS POTENT ANTIPROLIFERATIVE AGENTS” (priority 2001, published 2003)
